Experimental data reported in patent US20240158446A1, “CYCLIC COMPOUND HAVING SELECTIVE INHIBITORY ACTION ON KRAS OVER HRAS AND NRAS” (CHUGAI SEIYAKU KABUSHIKI KAISHA, priority 2021, published 2024).
Read-outs that look alike come from different tables or passages of the source. Where a SMILES comes first, the peptide text is derived from it. Bridges are numbered along the chain shown (N, C = ends). [ ]: non-standard residue; d: D form. The star is where a group is joined. hPhe(3,5-F2-4-CF3) = N[C@@H](CCc1cc(F)c(C(F)(F)F)c(F)c1)C(=O)O; hPhe(3-Cl-4-CF3) = N[C@@H](CCc1ccc(C(F)(F)F)c(Cl)c1)C(=O)O; NPrPhe(4-CF3) = CCCN[C@@H](Cc1ccc(C(F)(F)F)cc1)C(=O)O; NMePhe(4-Me) = CN[C@@H](Cc1ccc(C)cc1)C(=O)O; NMeGly(cPent) = CN[C@H](C(=O)O)C1CCCC1; αMeCha = C[C@](N)(CC1CCCCC1)C(=O)O; NMeD = CN[C@@H](CC(=O)O)C(=O)O; NMeL = CN[C@@H](CC(C)C)C(=O)O; Morpholide = C1CN(*)CCO1; NMeA = CN[C@@H](C)C(=O)O; Ac5c = NC1(C(=O)O)CCCC1; Aze = O=C(O)[C@@H]1CCN1; NPrGly = CCCNCC(=O)O; Sar = CNCC(=O)O

Key:
[1] = molecular target: GDP-bound NRAS wild-type protein (Homo sapiens, UniProt P01111); assay: Binding to NRAS by surface plasmon resonance (SPR), Single Cycle Kinetics
[2] = molecular target: GDP-bound KRAS wild-type protein (Homo sapiens, UniProt P01116); assay: Binding to KRAS by surface plasmon resonance (SPR), Single Cycle Kinetics; settings: GDP-bound KRAS wild-type protein, read-out: KRAS KD
[3] = molecular target: GDP-bound HRAS wild-type protein (Homo sapiens, UniProt P01112); assay: Binding to HRAS by surface plasmon resonance (SPR), Single Cycle Kinetics
[4] = SPR, GDP-bound NRAS wild-type protein vs GDP-bound KRAS wild-type protein
[5] = SPR Single Cycle Kinetics, 1:1 binding model
[6] = SPR, GDP-bound HRAS wild-type protein vs GDP-bound KRAS wild-type protein

GDP-bound HRAS wild-type protein, sequence (P01112 whole entry): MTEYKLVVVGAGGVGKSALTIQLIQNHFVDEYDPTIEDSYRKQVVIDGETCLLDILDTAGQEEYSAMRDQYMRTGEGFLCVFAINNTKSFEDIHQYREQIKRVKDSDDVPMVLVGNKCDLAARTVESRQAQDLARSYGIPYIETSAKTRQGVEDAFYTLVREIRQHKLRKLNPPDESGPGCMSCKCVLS
GDP-bound KRAS wild-type protein, sequence (P01116 whole entry): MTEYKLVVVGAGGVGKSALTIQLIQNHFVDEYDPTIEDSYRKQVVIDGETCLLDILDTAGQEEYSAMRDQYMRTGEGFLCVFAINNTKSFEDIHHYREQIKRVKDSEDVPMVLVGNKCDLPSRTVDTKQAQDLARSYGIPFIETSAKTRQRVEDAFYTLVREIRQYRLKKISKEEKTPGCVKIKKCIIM
GDP-bound NRAS wild-type protein, sequence (P01111 whole entry): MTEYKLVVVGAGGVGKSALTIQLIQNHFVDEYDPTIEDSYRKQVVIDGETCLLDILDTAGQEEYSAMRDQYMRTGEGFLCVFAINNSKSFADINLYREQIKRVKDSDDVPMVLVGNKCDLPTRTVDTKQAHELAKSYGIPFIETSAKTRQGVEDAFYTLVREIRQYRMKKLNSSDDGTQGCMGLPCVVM

Structure (SMILES) | NRAS/KRAS (ratio of KD value for NRAS to KD value for KRAS) [1, 4] | Kd [2, 5] [nM] | HRAS/KRAS (ratio of KD value for HRAS to KD value for KRAS) [3, 6] | Kd ([2]; SPR, Single Cycle Kinetics) [nM] | also measured
CCCN1CC(=O)N(C)[C@@H](Cc2ccc(C)cc2)C(=O)N(C)CC(=O)N[C@@H](CCc2ccc(C(F)(F)F)c(Cl)c2)C(=O)N2CCC[C@H]2C(=O)NC2(CCCC2)C(=O)N(C)[C@@H](C2CCCC2)C(=O)N(C)[C@H](C(=O)N2CCOCC2)CC(=O)N(C)[C@@H](CC(C)C)C(=O)N[C@@H]([C@@H](C)CC)C(=O)N(C)CC1=O [PP0020] ([NMeL]I[Sar][NPrGly][NMePhe(4-Me)][Sar][hPhe(3-Cl-4-CF3)]P[Ac5c][NMeGly(cPent)][NMeD]-Morpholide; lactam N-11) | C (A compound having a KD ratio of 0.1 or more and less than 3 is denoted as C) | 0.77 | C (A compound having a KD ratio of 0.1 or more and less than 3 is denoted as C) | – | –
CCO[C@@H]1C[C@H]2C(=O)NC3(CCC3)C(=O)N(C)[C@@H](C3CCCC3)C(=O)N(C)[C@H](C(=O)N(C)C)CC(=O)N(C)[C@@H](CC)C(=O)N[C@@H]([C@@H](C)CC)C(=O)N3CC[C@H]3C(=O)N(C)[C@H]3CC(C)=C(C)CN(C3=O)[C@@H](Cc3ccc(C(F)(F)F)cc3)C(=O)N(C)CC(=O)N[C@@H](CCc3cc(F)c(C(F)(F)F)c(F)c3)C(=O)N2C1 [PP1049] | C (A compound having a KD ratio of 0.1 or more and less than 3 is denoted as C) | – | C (A compound having a KD ratio of 0.1 or more and less than 3 is denoted as C) | 0.91 | –
CCCOC[C@H]1C(=O)N[C@@H]([C@@H](C)CC)C(=O)N(C)CC(=O)N(C)[C@H]2C/C=C\CCN(C2=O)[C@@H](Cc2ccc(C)cc2)C(=O)N(C)CC(=O)N[C@@H](CCc2ccc(C(F)(F)F)c(Cl)c2)C(=O)N2C[C@H](C)C[C@H]2C(=O)NC2(CC(C)(C)C2)C(=O)N(C)[C@@H](C2CCCC2)C(=O)N(C)[C@H](C(=O)N(C)C)CC(=O)N1C [PP2234] | A (a compound having 10 or more and less than 20 is denoted as A) | – | A (a compound having 10 or more and less than 20 is denoted as A) | 0.19 | –
C=CC[C@H]1C(=O)N[C@@H]([C@@H](C)CC)C(=O)N(C)CC(=O)N(C)[C@H]2CCCCCN(C2=O)[C@@H](Cc2ccc(C(F)(F)F)cc2)C(=O)N(C)CC(=O)N[C@@H](CCc2cc(F)c(C(F)(F)F)c(F)c2)C(=O)N2C[C@H](OCC)C[C@H]2C(=O)N[C@](C)(CC=C)C(=O)N(C)[C@@H](C2CCCC2)C(=O)N(C)[C@H](C(=O)N2CCOCC2)CC(=O)N1C [PP0878] | B (a compound having 3 or more and less than 10 is denoted as B) | – | B (a compound having 3 or more and less than 10 is denoted as B) | 3.2 | –
CC[C@H](C)[C@@H]1NC(=O)[C@H](C2CCC2)N(C)C(=O)C[C@@H](C(=O)N(C)CC)N(C)C(=O)[C@H](C2CCCC2)N(C)C(=O)C2(CCC2)NC(=O)[C@@H]2C[C@H](C)CN2C(=O)[C@H](CCc2ccc(C(F)(F)F)c(OC)c2)NC(=O)CN(C)C(=O)[C@H](Cc2ccc(C(F)(F)F)cc2)N2CC/C=C\C[C@@H](C2=O)N(C)C(=O)CN(C)C1=O [PP2071] | A (a compound having 10 or more and less than 20 is denoted as A) | – | A (a compound having 10 or more and less than 20 is denoted as A) | 0.1 | –
CCO[C@@H]1C[C@H]2C(=O)NC3(CCC3)C(=O)N(C)[C@@H](C3CCCC3)C(=O)N(C)[C@H](C(=O)N(C)CC)CC(=O)N(C)[C@@H](CC(C)C)C(=O)N[C@@H]([C@@H](C)CC)C(=O)N(C)CC(=O)N(C)[C@H]3C/C=C\CCN(C3=O)[C@@H](Cc3ccc(C(F)(F)F)cc3)C(=O)N(C)CC(=O)N[C@@H](CCc3cc(F)c(C(F)(F)F)c(F)c3)C(=O)N2C1 [PP1300, (2S,8S,12R,14S,20S,23S,27S,30S,36S,38Z)-20-cyclopentyl-8-[2-[3,5-difluoro-4-(trifluoromethyl)phenyl]ethyl]-12-ethoxy-N-ethyl-27-isobutyl-N,4,19,22,26,32,35-heptamethyl-30-[(1S)-1-methylpropyl]-3,6,9,15,18,21,25,28,31,34,42-undecaoxo-2-[[4-(trifluoromethyl)phenyl]methyl]spiro[1,4,7,10,16,19,22,26,29,32,35-undecazatricyclo[34.5.1.0^10,14]dotetracont-38-ene-17,1′-cyclobutane]-23-carboxamide] | – | – | – | – | NRAS/KRAS (ratio of KD value for NRAS to KD value for KRAS) ([1]; SPR, GDP-bound NRAS wild-type protein vs GDP-bound KRAS wild-type protein, KD ratio class): A (a compound having 10 or more and less than 20 is denoted as A); Kd ([2]; SPR, Single Cycle Kinetics, 1:1 binding model): 0.082 nM; HRAS/KRAS (ratio of KD value for HRAS to KD value for KRAS) ([3]; SPR, GDP-bound HRAS wild-type protein vs GDP-bound KRAS wild-type protein, KD ratio class): A (a compound having 10 or more and less than 20 is denoted as A)
CCO[C@@H]1C[C@H]2C(=O)NC3(CCC3)C(=O)N(C)[C@@H](C3CCCC3)C(=O)N(C)[C@H](C(=O)N(C)CC)CC(=O)N(C)[C@H]3CCCCCc4ccc(cc4)C[C@@H](C(=O)N(C)CC(=O)N[C@@H](CCc4ccc(C(F)(F)F)c(OC)c4)C(=O)N2C1)N1CC/C=C\C[C@@H](C1=O)N(C)C(=O)CN(C)C(=O)[C@H]([C@@H](C)CC)NC3=O [PP2118] | A (a compound having 10 or more and less than 20 is denoted as A) | – | B (a compound having 3 or more and less than 10 is denoted as B) | 0.15 | –
CCO[C@@H]1C[C@H]2C(=O)NC3(CCCC3)C(=O)N(C)[C@@H](C3CCCC3)C(=O)N(C)[C@H](C(=O)N3CCOCC3)CC(=O)N(C)[C@@H](CC)C(=O)N[C@@H]([C@@H](C)CC)C(=O)N(C)CC(=O)N(C)[C@H]3CC(C)=CCN(C3=O)[C@@H](Cc3ccc(C(F)(F)F)cc3)C(=O)N(C)CC(=O)N[C@@H](CCc3cc(F)c(C(F)(F)F)c(F)c3)C(=O)N2C1 [PP1043] | C (A compound having a KD ratio of 0.1 or more and less than 3 is denoted as C) | – | C (A compound having a KD ratio of 0.1 or more and less than 3 is denoted as C) | 2.4 | –
CCCN1C(=O)CN(C)C(=O)CN(C)C(=O)[C@H]([C@@H](C)CC)NC(=O)[C@H](CC(C)C)N(C)C(=O)C[C@@H](C(=O)N2CCOCC2)N(C)C(=O)[C@H](C2CCCC2)N(C)C(=O)[C@](C)(CC2CCCCC2)NC(=O)[C@@H]2CCCN2C(=O)[C@H](CCc2cc(F)c(C(F)(F)F)c(F)c2)NC(=O)CN(C)C(=O)[C@@H]1Cc1ccc(C(F)(F)F)cc1 [PP0760] ([NMeL]I[Sar][Sar][NPrPhe(4-CF3)][Sar][hPhe(3,5-F2-4-CF3)]P[αMeCha][NMeGly(cPent)][NMeD]-Morpholide; lactam N-11) | – | 16 | – | – | NRAS/KRAS (ratio of KD value with respect to NRAS to KD value with respect to KRAS) [1, 4]: B (a compound having 3 or more and less than 10 is denoted as B); HRAS/KRAS (ratio of KD value with respect to HRAS to KD value with respect to KRAS) [3, 6]: C (A compound having a KD ratio of 0.1 or more and less than 3 is denoted as C)
CCO[C@@H]1C[C@H]2C(=O)NC3(CC(C)(C)C3)C(=O)N(C)[C@@H](C3CCCC3)C(=O)N(C)[C@H](C(=O)N(C)CC)CC(=O)N(C)[C@H]3CCCC/C=C/c4ccc(cc4)C[C@@H](C(=O)N(C)CC(=O)N[C@@H](CCc4ccc(Cl)c(Cl)c4)C(=O)N2C1)N1CC/C=C\C[C@@H](C1=O)N(C)C(=O)CN(C)C(=O)[C@H]([C@@H](C)CC)NC3=O [PP2592] | – | 0.13 | – | – | NRAS/KRAS (ratio of KD value with respect to GDP-bound NRAS wild-type protein to KD value with respect to KRAS) ([1]; SPR KD ratio NRAS/KRAS, class symbols): A (a compound having 10 or more and less than 20 is denoted as A); HRAS/KRAS (ratio of KD value with respect to GDP-bound HRAS wild-type protein to KD value with respect to KRAS) ([3]; SPR KD ratio HRAS/KRAS, class symbols): A (a compound having 10 or more and less than 20 is denoted as A)
CCCN1C(=O)[C@@H]2CCN2C(=O)[C@H](C)N(C)C(=O)[C@H]([C@@H](C)CC)NC(=O)[C@H](CC(C)C)NC(=O)C[C@@H](C(=O)N2CCOCC2)N(C)C(=O)[C@H](C2CCCC2)N(C)C(=O)C2(CCCC2)NC(=O)[C@@H]2CCCN2C(=O)[C@H](CCc2ccc(C(F)(F)F)c(Cl)c2)NC(=O)CN(C)C(=O)[C@@H]1Cc1ccc(C(F)(F)F)cc1 [PP0154] (LI[NMeA][Aze][NPrPhe(4-CF3)][Sar][hPhe(3-Cl-4-CF3)]P[Ac5c][NMeGly(cPent)][NMeD]-Morpholide; lactam N-11) | C (A compound having a KD ratio of 0.1 or more and less than 3 is denoted as C) | 0.23 | B (a compound having 3 or more and less than 10 is denoted as B) | – | –
CCO[C@@H]1C[C@H]2C(=O)N[C@]3(C)CCCCCC[C@@H](C(=O)N[C@@H]([C@@H](C)CC)C(=O)N(C)CC(=O)N(C)[C@H]4CCCCN(C4=O)[C@@H](Cc4ccc(C(F)(F)F)cc4)C(=O)N(C)CC(=O)N[C@@H](CCc4cc(F)c(C(F)(F)F)c(F)c4)C(=O)N2C1)N(C)C(=O)C[C@@H](C(=O)N1CCOCC1)N(C)C(=O)[C@H](C1CCCC1)N(C)C3=O [PP0992] | B (a compound having 3 or more and less than 10 is denoted as B) | – | B (a compound having 3 or more and less than 10 is denoted as B) | 4.6 | –
